Results as given in US9931327B2, “Derivatives of 1-phenyl-2-pyridinyl alkyl alcohols as phosphodiesterase inhibitors” (Chiesi Farmaceutici S.p.A., priority 2011, dated 2018).
Structures can show the parent of a compound that is named as a salt.

Test system: LPS-induced TNF-α release in peripheral blood mononuclear cells (PBMCs)
Test: In vitro determination of PDE4 inhibitory activity in the PBMCs assay (LPS-induced TNF-α release)
Format: cell-based, human
Conditions: PBMC; human PBMCs, LPS 3 ng/ml, 18 hours, TNF-α by ELISA; read-out: PDE4 inhibition (IC50, 50% inhibition of LPS-induced TNF-α release)
How it was run: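 Cryopreserved human PBMCs (10^5 cells/well) pre-incubated 30 min with compound (10^−12 to 10^−6 M or 10^−3 to 10^−7 M), then stimulated with LPS 3 ng/ml for 18 h at 37 °C. TNF-α in medium by ELISA; IC50 as mean ± 95% confidence limits.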

Structure (SMILES) | IC50
CN(C)Cc1cccc(C(=O)N2CCSC2C(=O)O[C@@H](Cc2c(Cl)c[n+]([O-])cc2Cl)c2ccc(OC(F)F)c(OCC3CC3)c2)c1 (stereo partly drawn) [Compound 34, 3,5-dichloro-4-((2S)-2-(3-(cyclopropylmethoxy)-4-(difluoromethoxy)phenyl)-2-(3-(3-((dimethylamino)methyl)benzoyl)thiazolidine-2-carbonyloxy)ethyl)pyridine 1-oxide] | 0.1 to 1 nM
CN(C)S(=O)(=O)c1cccc(S(=O)(=O)N2CCCC[C@H]2C(=O)O[C@@H](Cc2c(Cl)c[n+]([O-])cc2Cl)c2ccc(OC(F)F)c(OCC3CC3)c2)c1 [Compound 113, 3,5-dichloro-4-((S)-2-(3-(cyclopropylmethoxy)-4-(difluoromethoxy)phenyl)-2-((S)-1-(3-(N,N-dimethylsulfamoyl)phenylsulfonyl)piperidine-2-carbonyloxy)ethyl)pyridine 1-oxide] | < 0.1 nM
COc1cccc(S(=O)(=O)N2CCS[C@H]2C(=O)O[C@@H](Cc2c(Cl)c[n+]([O-])cc2Cl)c2ccc(OC(F)F)c(OCC3CC3)c2)c1 [Compound 103, 3,5-dichloro-4-((S)-2-(3-(cyclopropylmethoxy)-4-(difluoromethoxy)phenyl)-2-((S)-3-(3-methoxyphenylsulfonyl)thiazolidine-2-carbonyloxy)ethyl)pyridine 1-oxide] | 0.1 to 1 nM
NCCc1ccc(C(=O)N2CCSC2C(=O)O[C@@H](Cc2c(Cl)c[n+]([O-])cc2Cl)c2ccc(OC(F)F)c(OCC3CC3)c2)cc1 (stereo partly drawn) [Compound 22, 4-((2S)-2-(3-(4-(2-aminoethyl)benzoyl)thiazolidine-2-carbonyloxy)-2-(3-(cyclopropylmethoxy)-4-(difluoromethoxy)phenyl)ethyl)-3,5-dichloropyridine 1-oxide] | 0.1 to 1 nM
CS(=O)(=O)N(CCN1CCOCC1)c1cc(OCC2CC2)cc(C(=O)N2CCSC2C(=O)O[C@@H](Cc2c(Cl)c[n+]([O-])cc2Cl)c2ccc(OC(F)F)c(OCC3CC3)c2)c1 (stereo partly drawn) [Compound 49, 3,5-dichloro-4-((2S)-2-(3-(cyclopropylmethoxy)-4-(difluoromethoxy)phenyl)-2-(3-(3-(cyclopropylmethoxy)-5-(N-(2-morpholinoethyl)methylsulfonamido)benzoyl)thiazolidine-2-carbonyloxy)ethyl)pyridine 1-oxide formate] | 0.1 to 1 nM
O=C(O[C@@H](Cc1c(Cl)c[n+]([O-])cc1Cl)c1ccc(OC(F)F)c(OCC2CC2)c1)C1SCCN1S(=O)(=O)c1ccc(F)cc1Cl (stereo partly drawn) [Compound 68, 3,5-dichloro-4-((2S)-2-(3-(2-chloro-4-fluorophenylsulfonyl)thiazolidine-2-carbonyloxy)-2-(3-(cyclopropylmethoxy)-4-(difluoromethoxy)phenyl)ethyl)pyridine 1-oxide] | 0.1 to 1 nM
CC(=O)c1cccc(S(=O)(=O)N2CCS[C@H]2C(=O)O[C@@H](Cc2c(Cl)c[n+]([O-])cc2Cl)c2ccc(OC(F)F)c(OCC3CC3)c2)c1 [Compound 117, 4-((S)-2-((S)-3-(3-acetylphenylsulfonyl)thiazolidine-2-carbonyloxy)-2-(3-(cyclopropylmethoxy)-4-(difluoromethoxy)phenyl)ethyl)-3,5-dichloropyridine 1-oxide] | 0.1 to 1 nM
CN(C)C(=O)c1cccc(S(=O)(=O)N2CCS[C@H]2C(=O)O[C@@H](Cc2c(Cl)c[n+]([O-])cc2Cl)c2ccc(OC(F)F)c(O)c2)c1 [Compound 263, 3,5-dichloro-4-((S)-2-(4-(difluoromethoxy)-3-hydroxyphenyl)-2-((S)-3-(3-(dimethylcarbamoyl)phenylsulfonyl)thiazolidine-2-carbonyloxy)ethyl)pyridine 1-oxide] | 1 to 10 nM
CN(C)C(=O)c1cccc(S(=O)(=O)N2CSC[C@H]2C(=O)O[C@@H](Cc2c(Cl)c[n+]([O-])cc2Cl)c2ccc(OC(F)F)c(OCC3CC3)c2)c1 [Compound 84, 3,5-dichloro-4-((S)-2-(3-(cyclopropylmethoxy)-4-(difluoromethoxy)phenyl)-2-((R)-3-(3-(dimethylcarbamoyl)phenylsulfonyl)thiazolidine-4-carbonyloxy)ethyl)pyridine 1-oxide] | < 0.1 nM
COc1ccc([C@H](Cc2c(Cl)c[n+]([O-])cc2Cl)OC(=O)[C@@H]2CCCN2S(=O)(=O)c2cccc(C(=O)N(C)C)c2)cc1OC [Compound 310, 3,5-dichloro-4-((S)-2-(3,4-dimethoxyphenyl)-2-((S)-1-(3-(dimethylcarbamoyl)phenylsulfonyl)pyrrolidine-2-carbonyloxy)ethyl)pyridine 1-oxide] | < 0.1 nM
COc1ccc(C(=O)N2CCSC2C(=O)O[C@@H](Cc2c(Cl)c[n+]([O-])cc2Cl)c2ccc(OC(F)F)c(OCC3CC3)c2)cc1S(=O)(=O)N(C)C (stereo partly drawn) [Compound 32, 3,5-dichloro-4-((2S)-2-(3-(cyclopropylmethoxy)-4-(difluoromethoxy)phenyl)-2-(3-(3-(N,N-dimethylsulfamoyl)-4-methoxybenzoyl)thiazolidine-2-carbonyloxy)ethyl)pyridine 1-oxide] | 0.1 to 1 nM
CN1CCOc2ccc(S(=O)(=O)N3CSC[C@H]3C(=O)O[C@@H](Cc3c(Cl)c[n+]([O-])cc3Cl)c3ccc(OC(F)F)c(OCC4CC4)c3)cc21 [Compound 252, 3,5-dichloro-4-((S)-2-(3-(cyclopropylmethoxy)-4-(difluoromethoxy)phenyl)-2-((R)-3-(4-methyl-3,4-dihydro-2H-benzo[b][1,4]oxazin-6-ylsulfonyl)thiazolidine-4-carbonyloxy)ethyl)pyridine 1-oxide] | < 0.1 nM
CN(C)C(=O)c1cccc(S(=O)(=O)N2CCC[C@H]2C(=O)O[C@@H](Cc2c(Cl)c[n+]([O-])cc2Cl)c2ccc(OC(F)F)c(OCC3CC3)c2)c1 [Compound 54, 3,5-dichloro-4-((S)-2-(3-(cyclopropylmethoxy)-4-(difluoromethoxy)phenyl)-2-((S)-1-(3-(dimethylcarbamoyl)phenylsulfonyl)pyrrolidine-2-carbonyloxy)ethyl)pyridine 1-oxide] | < 0.1 nM
Cn1ccnc1S(=O)(=O)N1CCS[C@H]1C(=O)O[C@@H](Cc1c(Cl)c[n+]([O-])cc1Cl)c1ccc(OC(F)F)c(OCC2CC2)c1 [Compound 90, 3,5-dichloro-4-((S)-2-(3-(cyclopropylmethoxy)-4-(difluoromethoxy)phenyl)-2-((S)-3-(1-methyl-1H-imidazol-2-ylsulfonyl)thiazolidine-2-carbonyloxy)ethyl)pyridine 1-oxide] | < 0.1 nM
COc1ccc(OC)c(S(=O)(=O)N2CCS[C@H]2C(=O)O[C@@H](Cc2c(Cl)c[n+]([O-])cc2Cl)c2ccc(OC(F)F)c(OCC3CC3)c2)c1 [Compound 115, 3,5-dichloro-4-((S)-2-(3-(cyclopropylmethoxy)-4-(difluoromethoxy)phenyl)-2-((S)-3-(2,5-dimethoxyphenylsulfonyl)thiazolidine-2-carbonyloxy)ethyl)pyridine 1-oxide] | < 0.1 nM
NS(=O)(=O)c1cccc(S(=O)(=O)N2CCSC2C(=O)O[C@@H](Cc2c(Cl)c[n+]([O-])cc2Cl)c2ccc(OC(F)F)c(OCC3CC3)c2)c1 (stereo partly drawn) [Compound 59, 3,5-dichloro-4-((2S)-2-(3-(cyclopropylmethoxy)-4-(difluoromethoxy)phenyl)-2-(3-(3-sulfamoylphenylsulfonyl)thiazolidine-2-carbonyloxy)ethyl)pyridine 1-oxide] | < 0.1 nM
N#Cc1cccc(S(=O)(=O)N2CCS[C@H]2C(=O)O[C@@H](Cc2c(Cl)c[n+]([O-])cc2Cl)c2ccc(OC(F)F)c(OCC3CC3)c2)c1 [Compound 207, 3,5-dichloro-4-((S)-2-((S)-3-(3-cyanophenylsulfonyl)thiazolidine-2-carbonyloxy)-2-(3-(cyclopropylmethoxy)-4-(difluoromethoxy)phenyl)ethyl)pyridine 1-oxide] | 0.1 to 1 nM
COc1ccc(S(=O)(=O)N2CCS[C@H]2C(=O)O[C@@H](Cc2c(Cl)c[n+]([O-])cc2Cl)c2ccc(OC(F)F)c(OCC3CC3)c2)cc1OC [Compound 93, 3,5-dichloro-4-((S)-2-(3-(cyclopropylmethoxy)-4-(difluoromethoxy)phenyl)-2-((S)-3-(3,4-dimethoxyphenylsulfonyl)thiazolidine-2-carbonyloxy)ethyl)pyridine 1-oxide] | < 0.1 nM
O=C(O[C@@H](Cc1c(Cl)c[n+]([O-])cc1Cl)c1ccc(OC(F)F)c(OCC2CC2)c1)[C@@H]1SCCN1S(=O)(=O)c1ccc(N2CCOCC2)nc1 [Compound 105, 3,5-dichloro-4-((S)-2-(3-(cyclopropylmethoxy)-4-(difluoromethoxy)phenyl)-2-((S)-3-(6-morpholinopyridin-3-ylsulfonyl)thiazolidine-2-carbonyloxy)ethyl)pyridine 1-oxide] | 0.1 to 1 nM
CN1C(=O)Cc2cc(S(=O)(=O)N3CCS[C@H]3C(=O)O[C@@H](Cc3c(Cl)c[n+]([O-])cc3Cl)c3ccc(OC(F)F)c(OCC4CC4)c3)ccc21 [Compound 210, 3,5-dichloro-4-((S)-2-(3-(cyclopropylmethoxy)-4-(difluoromethoxy)phenyl)-2-((S)-3-(1-methyl-2-oxoindolin-5-ylsulfonyl)thiazolidine-2-carbonyloxy)ethyl)pyridine 1-oxide] | < 0.1 nM
O=C(O[C@@H](Cc1c(Cl)c[n+]([O-])cc1Cl)c1ccc(OC(F)F)c(OCC2CC2)c1)C1SCCN1S(=O)(=O)c1ccsc1 (stereo partly drawn) [Compound 85, 3,5-dichloro-4-((2S)-2-(3-(cyclopropylmethoxy)-4-(difluoromethoxy)phenyl)-2-(3-(thiophen-3-ylsulfonyl)thiazolidine-2-carbonyloxy)ethyl)pyridine 1-oxide] | < 0.1 nM
CN(C)C(=O)c1cccc(S(=O)(=O)N2CCSC2C(=O)O[C@@H](Cc2c(Cl)c[n+]([O-])cc2Cl)c2ccc(OC(F)F)c(OCC3CC3)c2)c1 (stereo partly drawn) [Compound 56, 3,5-dichloro-4-((2S)-2-(3-(cyclopropylmethoxy)-4-(difluoromethoxy)phenyl)-2-(3-(3-(dimethylcarbamoyl)phenylsulfonyl)thiazolidine-2-carbonyloxy)ethyl)pyridine 1-oxide] | < 0.1 nM
